Measurements reported in ChEMBL document CHEMBL5223154, “9-Demethoxy-medicarpin: A potential bone health supplement for the management of protein deficiency-induced bone loss in growing rats” (2023).
Active and inactive are the calls of the source. The rule behind the calls is not given here.

How the values were obtained:
[1] = test system: Rattus norvegicus; experiment: Effect on protein deficiency diet induced bone loss in Sprague-Dawley rat assessed as change in body weight at 1 mg, po supplemented with protein deficient diet for one month followed by compound treatment and measured twice a week for 4 weeks; assay type: functional
[2] = test system: Rattus norvegicus; experiment: Effect on protein deficiency diet induced bone loss in Sprague-Dawley rat assessed as change in body weight at 10 mg, po supplemented with protein deficient diet for one month followed by compound treatment and measured twice a week for 4 weeks; assay type: functional
[3] = test system: Rattus norvegicus; experiment: Effect on protein deficiency diet induced bone loss in Sprague-Dawley rat assessed as change in femur length at 1 mg, po supplemented with protein deficient diet for one month followed by compound treatment and measured after 4 weeks; assay type: functional
[4] = test system: Rattus norvegicus; experiment: Effect on protein deficiency diet induced bone loss in Sprague-Dawley rat assessed as change in femur length at 10 mg, po supplemented with protein deficient diet for one month followed by compound treatment and measured after 4 weeks; assay type: functional
[5] = test system: Rattus norvegicus; experiment: Effect on protein deficiency diet induced bone loss in Sprague-Dawley rat assessed as change in tibia length at 1 mg, po supplemented with protein deficient diet for one month followed by compound treatment and measured after 4 weeks; assay type: functional
[6] = test system: Rattus norvegicus; experiment: Effect on protein deficiency diet induced bone loss in Sprague-Dawley rat assessed as change in tibia length at 10 mg, po supplemented with protein deficient diet for one month followed by compound treatment and measured after 4 weeks; assay type: functional
[7] = test system: Rattus norvegicus; experiment: Effect on protein deficiency diet induced bone loss in Sprague-Dawley rat assessed as increase in global vertebral bone mineral density at 1 to 10 mg, po supplemented with protein deficient diet for one month followed by compound treatment and measured after 4 weeks; assay type: functional, organism-based; conditions: dose 1-10 mg
[8] = test system: Rattus norvegicus; experiment: Effect on protein deficiency diet induced bone loss in Sprague-Dawley rat assessed as increase in L1 vertebral bone mineral density at 1 to 10 mg, po supplemented with protein deficient diet for one month followed by compound treatment and measured after 4 weeks; assay type: functional, organism-based; conditions: dose 1-10 mg
[9] = test system: Rattus norvegicus; experiment: Effect on protein deficiency diet induced bone loss in Sprague-Dawley rat assessed as increase in L2 vertebral bone mineral density at 1 to 10 mg, po supplemented with protein deficient diet for one month followed by compound treatment and measured after 4 weeks; assay type: functional, organism-based; conditions: dose 1-10 mg
[10] = test system: Rattus norvegicus; experiment: Effect on protein deficiency diet induced bone loss in Sprague-Dawley rat assessed as increase in L3 vertebral bone mineral density at 1 to 10 mg, po supplemented with protein deficient diet for one month followed by compound treatment and measured after 4 weeks; assay type: functional, organism-based; conditions: dose 1-10 mg
[11] = test system: Rattus norvegicus; experiment: Effect on protein deficiency diet induced bone loss in Sprague-Dawley rat assessed as increase in L4 vertebral bone mineral density at 1 to 10 mg, po supplemented with protein deficient diet for one month followed by compound treatment and measured after 4 weeks; assay type: functional, organism-based; conditions: dose 1-10 mg
[12] = test system: Rattus norvegicus; experiment: Effect on protein deficiency diet induced bone loss in Sprague-Dawley rat assessed as increase in global femur bone mineral density at 10 mg, po supplemented with protein deficient diet for one month followed by compound treatment and measured after 4 weeks; assay type: functional, organism-based
[13] = test system: Rattus norvegicus; experiment: Effect on protein deficiency diet induced bone loss in Sprague-Dawley rat assessed as increase in bone mineral density at neck of femur at 10 mg, po supplemented with protein deficient diet for one month followed by compound treatment and measured after 4 weeks; assay type: functional, organism-based
[14] = test system: Rattus norvegicus; experiment: Effect on protein deficiency diet induced bone loss in Sprague-Dawley rat assessed as increase in bone mineral density at midshaft of femur at 10 mg, po supplemented with protein deficient diet for one month followed by compound treatment and measured after 4 weeks; assay type: functional, organism-based
[15] = test system: Rattus norvegicus; experiment: Effect on protein deficiency diet induced bone loss in Sprague-Dawley rat assessed as increase in global tibial bone mineral density at 10 mg, po supplemented with protein deficient diet for one month followed by compound treatment and measured after 4 weeks; assay type: functional, organism-based
[16] = test system: Rattus norvegicus; experiment: Effect on protein deficiency diet induced bone loss in Sprague-Dawley rat assessed as increase in global tibial bone mineral density at 1 mg, po supplemented with protein deficient diet for one month followed by compound treatment and measured after 4 weeks; assay type: functional, organism-based
[17] = test system: Rattus norvegicus; experiment: Effect on protein deficiency diet induced bone loss in Sprague-Dawley rat assessed as increase in bone mineral density at proximal head of tibia at 10 mg, po supplemented with protein deficient diet for one month followed by compound treatment and […]; assay type: functional, organism-based
[18] = test system: Rattus norvegicus; experiment: Effect on protein deficiency diet induced bone loss in Sprague-Dawley rat assessed as increase in bone mineral density at proximal head of tibia at 1 mg, po supplemented with protein deficient diet for one month followed by compound treatment and measured after 4 weeks; assay type: functional, organism-based
[19] = test system: Rattus norvegicus; experiment: Effect on protein deficiency diet induced bone loss in Sprague-Dawley rat assessed as increase in bone mineral density at TFSP region of tibia at 10 mg, po supplemented with protein deficient diet for one month followed by compound treatment and measured after 4 weeks; assay type: functional, organism-based
[20] = test system: Rattus norvegicus; experiment: Effect on protein deficiency diet induced bone loss in Sprague-Dawley rat assessed as increase in bone mineral density at TFSP region of tibia at 1 mg, po supplemented with protein deficient diet for one month followed by compound treatment and measured after 4 weeks; assay type: functional, organism-based
[21] = test system: Rattus norvegicus; experiment: Effect on protein deficiency diet induced bone loss in Sprague-Dawley rat assessed as change in serum albumin level at 1 mg, po supplemented with protein deficient diet for one month followed by compound treatment and measured after 4 weeks; assay type: functional
[22] = test system: Rattus norvegicus; experiment: Effect on protein deficiency diet induced bone loss in Sprague-Dawley rat assessed as change in serum albumin level at 10 mg, po supplemented with protein deficient diet for one month followed by compound treatment and measured after 4 weeks; assay type: functional
[23] = test system: Rattus norvegicus; experiment: Effect on protein deficiency diet induced bone loss in Sprague-Dawley rat assessed as change in serum total protein level at 1 mg, po supplemented with protein deficient diet for one month followed by compound treatment and measured after 4 weeks; assay type: functional
[24] = test system: Rattus norvegicus; experiment: Effect on protein deficiency diet induced bone loss in Sprague-Dawley rat assessed as change in serum total protein level at 10 mg, po supplemented with protein deficient diet for one month followed by compound treatment and measured after 4 weeks; assay type: functional
[25] = test system: Rattus norvegicus; experiment: Effect on protein deficiency diet induced bone loss in Sprague-Dawley rat assessed as change in serum TGA level at 1 mg, po supplemented with protein deficient diet for one month followed by compound treatment and measured after 4 weeks; assay type: functional
[26] = test system: Rattus norvegicus; experiment: Effect on protein deficiency diet induced bone loss in Sprague-Dawley rat assessed as change in serum TGA level at 10 mg, po supplemented with protein deficient diet for one month followed by compound treatment and measured after 4 weeks; assay type: functional
[27] = test system: Rattus norvegicus; experiment: Effect on protein deficiency diet induced bone loss in Sprague-Dawley rat assessed as change in serum alkaline phosphatase level at 1 mg, po supplemented with protein deficient diet for one month followed by compound treatment and measured after 4 weeks; assay type: functional
[28] = test system: Rattus norvegicus; experiment: Effect on protein deficiency diet induced bone loss in Sprague-Dawley rat assessed as change in serum alkaline phosphatase level at 10 mg, po supplemented with protein deficient diet for one month followed by compound treatment and measured after 4 weeks; assay type: functional
[29] = test system: Rattus norvegicus; experiment: Effect on protein deficiency diet induced bone loss in Sprague-Dawley rat assessed as change in serum urea level at 1 mg, po supplemented with protein deficient diet for one month followed by compound treatment and measured after 4 weeks; assay type: functional
[30] = test system: Rattus norvegicus; experiment: Effect on protein deficiency diet induced bone loss in Sprague-Dawley rat assessed as change in serum urea level at 10 mg, po supplemented with protein deficient diet for one month followed by compound treatment and measured after 4 weeks; assay type: functional
[31] = test system: Rattus norvegicus; experiment: Effect on protein deficiency diet induced bone loss in Sprague-Dawley rat assessed as change in serum creatinine level at 1 mg, po supplemented with protein deficient diet for one month followed by compound treatment and measured after 4 weeks; assay type: functional
[32] = test system: Rattus norvegicus; experiment: Effect on protein deficiency diet induced bone loss in Sprague-Dawley rat assessed as change in serum creatinine level at 10 mg, po supplemented with protein deficient diet for one month followed by compound treatment and measured after 4 weeks; assay type: functional
[33] = test system: Rattus norvegicus; experiment: Effect on protein deficiency diet induced bone loss in Sprague-Dawley rat assessed as change in phosphate ion level in serum at 1 mg, po supplemented with protein deficient diet for one month followed by compound treatment and measured after 4 weeks; assay type: functional
[34] = test system: Rattus norvegicus; experiment: Effect on protein deficiency diet induced bone loss in Sprague-Dawley rat assessed as change in phosphate ion level in serum at 10 mg, po supplemented with protein deficient diet for one month followed by compound treatment and measured after 4 weeks; assay type: functional
[35] = test system: Mesenchymal stem cells; experiment: Induction of osteoblast differentiation in bone marrow mesenchymal stem cells isolated from Sprague-Dawley rat model of protein deficiency diet induced bone loss assessed as increase in mineralized nodule formation at 1 to 10 mg, po supplemented with protein deficient diet for one month followed by compound treatment and measured after 4 weeks by Alizarin Red-S staining based analysis; assay type: functional, organism-based; conditions: dose 1-10 mg

Oc1ccc2c(c1)OCC1c3ccccc3OC21 (stereo not given)
Activity [1]: 74.03 g | Activity [2]: 79.7 g | Activity [3]: 2.25 cm | Activity [4]: 2.39 cm | Activity [5]: 2.647 cm | Activity [6]: 2.8 cm | Activity [7]: Active | Activity [8]: Active | Activity [9]: Active | Activity [10]: Active | Activity [11]: Active | Activity [12]: Active | Activity [13]: Active | Activity [14]: Active | Activity [15]: Active | Activity [16]: inactive | Activity [17]: Active | Activity [18]: inactive | Activity [19]: Active | Activity [20]: inactive | Activity [21]: 1.11 g/dL | Activity [22]: 1.45 g/dL | Activity [23]: 48.9 g/L | Activity [24]: 64.7 g/L | Activity [25]: 17.8333 mg/dL | Activity [26]: 23.9333 mg/dL | Activity [27]: 377.2 IU/L | Activity [28]: 512.55 IU/L | Activity [29]: 11.3 mmol/L | Activity [30]: 14.1333 mmol/L | Activity [31]: 0.2633 mg/dL | Activity [32]: 0.2567 mg/dL | Activity [33]: 4.346 mg/dL | Activity [34]: 7.576 mg/dL | Activity [35]: Active
